The nature of data set [1]: Acute toxicity test in mice (oral). As to conditions: mouse, in vivo, po. The procedure: (§1) Acute toxicity test in mice was carried out on the benzofuran derivatives of the compound Nos. 3, 5, 9, 21, 23, 26, 29 and 34.
Data set [2] deals with mice. Briefly: Acute toxicity test in mice (oral). As to conditions: mice, oral; for death up to the dose of 3 g/kg body weight: up to 3 g/kg. On the procedure:
as §1

Data set [3] has as its target T1, aldose reductase from rat lens (Rattus norvegicus, UniProt P07943).
T1 construct: the supernatant was prepared as the crude enzyme solution; from tissue; host or cells: lens of male Wistar rats, 10,000 g supernatant of homogenate (crude enzyme)
Briefly: Aldose reductase inhibiting activity. The class given is biochemical. As to conditions: DL-glyceraldehyde substrate, Table 2, read-out: IC50 (50% inhibition concentration in M). On the procedure:
Wistar male rats were sacrificed by decapitation and the lenses were taken out to be homogenized with a 0.1M phosphate buffer [pH 6.8, containing 1 mM of mercaptoethanol and 1 mM of nicotinamide-adenine dinucleotide phosphate (NADP)]. The homogenate was then centrifuged at 10,000 g for 15 minutes and the supernatant was prepared as the crude enzyme solution.

Data set [4] concerns cyclooxygenase. In words: Cyclooxygenase inhibition: malondialdehyde production from arachidonic acid, 9000 G supernatant of lung homogenate from guinea pig. Format: biochemical. To be noted: guinea pig lung 9000 G supernatant, compared with aspirin. The procedure:
Lung from guinea pig was washed with physiological saline and homogenized in 0.1M Tris-hydrochloric acid buffer to prepare a supernatant by cooled centrifugation (9000 G).
The inhibiting activity against cyclooxygenase was measured by using the 9000 G supernatant as a source of cyclooxygenase in the presence of 1 mM epinephiline.

Data set [5] has as its system production of malondialdehyde from arachidonic acid by rabbit platelets. In words: Arachidonic acid metabolism inhibiting activity: production of malondialdehyde from arachidonic acid by rabbit platelets. Format: cell-based. To be noted: Oryctolagus cuniculus, Platelet, arachidonic acid 0.2 mM, read-out: concentration showing 50% inhibition against the production of malondialdehyde from arachidonic acid. The procedure:
Washed rabbit platelets prepared as in the platelet aggregation inhibiting activity test were suspended in 15 mM Tris-hydrochloric acid buffer with a final concentration of 1×10^8 cell/ml, to which each test compound of the compound Nos. 8, 13, 14, 19, 20, 23, 29, 30 and 33 were added and the resultant was preincubated at 37° C. for five minutes. Then arachidonic acid (a final concentration: 0.2 mM, made by Sigma Chemical Co.) was added thereto and the mixture was preincubated for 1 minute. An amount of the produced malondialdehyde was measured according to the thiobarbiturates method (Ed. Aoki and Shibata, Ketsuekigaku Kenkyukensaho, P 441 to 447).

For data set [6], the system named is aggregation of the washed rabbit platelet by thrombin. Briefly: Platelet aggregation inhibiting activity (washed rabbit platelet, thrombin). To be noted: for IC50: Oryctolagus cuniculus, Platelet; for platelet aggregation inhibiting activity relative to Persantin: compared with Persantin (dipyridamole). The class given is cell-based. The procedure: Blood samples were collected from the auricular blood vessel of rabbits (white local breed), and washed platelets were prepared therefrom by the method of Baenziger et al. (N. L. Baenziger and P. W. Majerus, Methods Enzymol., 31, 149 to 155 (1974). The platelets were suspended in a 15 mM Tris-hydrochloric acid buffer with a final concentration of 6×10^8 cells/ml (Tris: tris(hydroxymethyl)aminomethane). Each test compound of the compound Nos. 5, 8, 9, 11, 23, 29, 30 and 33 and Persantin® was added thereto and incubation was carried out at 37° C. for 2 minutes. Then the platelets were stimulated by addition of thrombin (0.2 unit/ml of final concentration; made by Mochida Pharmaceutical Co.) and the aggregation inhibiting activity was estimated by the observation of the aggregation reaction using an aggregometer (made by Briston Co.).
The results are shown in Table 3 in terms of IC50 (50% inhibiton concentration in M).

Where [7] appears, read: range for nine compounds, read-out: concentration showing 50% inhibition against the aggregation of the washed rabbit platelet by thrombin.
Where [8] appears, read: washed rabbit platelets, thrombin 0.2 unit/ml, 37° C., Table 3, read-out: IC50 (50% inhibition concentration in M).

This is an account of results in patent publication US4666931A, “Benzofuran derivatives useful in treating diabetic complications” (Kaken Pharmaceutical Co., Ltd., priority 1984, dated 1987).

Where two headings read alike, the source gives them in different places.

As to `CC(=O)COc1ccc(S(=O)(=O)NCC(=O)O)c2cc(C(C)=O)oc12` [Compound 26, 2-acetyl-4-(N-carboxymethylsulfamoyl)-7-acetonyloxybenzofuran], the LD50 (in general, the dose at which mortality reaches 50%) at 336 h in data set [1] was greater than 2000 mg/kg. The “death up to 2 g/kg body weight” value in data set [2] is “no death”. Also, in data set [3], the IC50 is 0.2 µM.

As for `CCCOc1ccc(S(=O)(=O)NCC(=O)O)c2cc(C(C)=O)oc12` [Compound 3, 2-acetyl-4-(N-carboxymethylsulfamoyl)-7-n-propoxybenzofuran], in data set [1], the LD50 at 336 h is greater than 3000 mg/kg. Also, the “death up to the dose of 3 g/kg body weight” value (shortened to “death up to the dose”) in data set [2] was “no death”. Further, the IC50 in data set [3] is 0.06 µM.

For the molecule `CCc1oc2ccc([N+](=O)[O-])cc2c1S(=O)(=O)NCC(=O)O` [Compound 21, 2-ethyl-3-(N-carboxymethylsulfamoyl)-5-nitrobenzofuran], in data set [1], the LD50 at 336 h was greater than 3000 mg/kg. In addition, the “death up to the dose” value in data set [2] is “no death”. For the same molecule, in data set [3], the IC50 is 0.05 µM.

The molecule `CC(=O)c1cc2c(S(=O)(=O)NCC(=O)O)ccc(OCc3ccc([N+](=O)[O-])cc3)c2o1` [Compound 23, 2-acetyl-4-(N-carboxymethylsulfamoyl)-7-p-nitrobenzyloxybenzofuran] displayed an LD50 at 336 h in data set [1] greater than 2000 mg/kg. For the same molecule, the “death up to 2 g/kg body weight” value in data set [2] is “no death”. Further, in data set [4], the “inhibition against malondialdehyde production relative to aspirin” value is on record as “equivalent to or more than”. The IC50 was 10 to 100 µM in data set [5], 0.05 µM in data set [3], 20 to 200 µM in data set [6] (setting [7]) and 80 µM in data set [6] (setting [8]). Also, the “platelet aggregation inhibiting activity relative to Persantin” value in data set [6] is recorded as “equivalent to or more than”.

`CCCCOc1ccc(S(=O)(=O)N(C)CC(=O)O)c2cc(C(C)=O)oc12` [Compound 9, 2-acetyl-4-(N-methyl-N-carboxymethylsulfamoyl)-7-n-butoxybenzofuran] yielded an LD50 at 336 h in data set [1] greater than 3000 mg/kg. Moreover, the “death up to the dose” value in data set [2] is given as “no death”. The IC50 was 1 µM in data set [3], 20 to 200 µM in data set [6] (setting [7]) and 600 µM in data set [6] (setting [8]). Moreover, the “platelet aggregation inhibiting activity relative to Persantin” value in data set [6] is “equivalent to or more than”.

In data set [1], `CC(=O)c1cc2c(S(=O)(=O)N(CC(=O)O)Cc3ccc(Cl)cc3)ccc(OCc3ccc(Cl)cc3)c2o1` [Compound 34, 2-acetyl-4-(N-p-chlorobenzyl-N-carboxymethylsulfamoyl)-7-p-chlorobenzyloxybenzofuran] came in with an LD50 at 336 h greater than 2000 mg/kg. Besides, the “death up to 2 g/kg body weight” value in data set [2] is listed as “no death”. Further, in data set [3], the IC50 worked out at 0.8 µM.

`CCCCCOc1ccc(S(=O)(=O)NCC(=O)O)c2cc(C(C)=O)oc12` [Compound 5, 2-acetyl-4-(N-carboxymethylsulfamoyl)-7-n-pentyloxybenzofuran] displayed an LD50 at 336 h in data set [1] greater than 3000 mg/kg. In data set [2], the “death up to the dose” value is listed as “no death”. Moreover, the IC50 was 0.05 µM in data set [3] and 20 to 200 µM in data set [6] (setting [7]). The “platelet aggregation inhibiting activity relative to Persantin” value in data set [6] is listed as “equivalent to or more than”.

In the case of `CC(=O)c1cc2c(S(=O)(=O)NCC(=O)O)ccc(OCc3ccccc3)c2o1` [Compound 29, 2-acetyl-4-(N-carboxymethylsulfamoyl)-7-benzyloxybenzofuran], in data set [1], the LD50 at 336 h was greater than 2000 mg/kg. Further, the “death up to 2 g/kg body weight” value in data set [2] is recorded as “no death”. In addition, the “inhibition against malondialdehyde production relative to aspirin” value in data set [4] is listed as “equivalent to or more than”. Moreover, the IC50 in data set [5] was 10 to 100 µM; in data set [3] it was 0.05 µM; in data set [6] (setting [7]), 20 to 200 µM; in data set [6] (setting [8]), 35 µM. The “platelet aggregation inhibiting activity relative to Persantin” value in data set [6] is “equivalent to or more than”.
